The text below walks through data of patent US20220153732A1, “PROTEIN SECRETION INHIBITORS” (KEZAR LIFE SCIENCES, priority 2019, published 2022).

Holding throughout (format): cell-based
For assay [1], the system named is human multiple myeloma cell line NCI-H929. Briefly: H929 Cell Viability Assay. The settings on record: 48 hr, NCI-H929 cells, Celltiter-Glo, read-out: 48 hr H929 Viability Celltiter-Glo: Mean EC50. As for the experimental part:
Plates were incubated at 37° C., 5% CO2 for 48 hours. After 48 hours, Celltiter-Glo® (Promega) was added to each well and luciferase signal was quantified using Tecan Infinite M1000 Pro for cell viability determination.
For chemical structures that include one or more stereoisomers, but are illustrated without indicating stereochemistry, the assay data refers to a mixture of stereoisomers.
(In general: Cellular ATP, detected with luciferase, serves as a proxy for viable cell number.)

The test system of assay [2] is TNFα-FL/Gaussia Luciferase. In words: Dox Induced TNFα-FL-Gluc Assay. The settings on record: 293FRT/TO cells, read-out: 24 hr Dox Inducible TNFaFLGluc 293FRT/TO: Mean IC50. In a few lines:
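Compounds were added in doxycycline-containing DMSO/media to cells plated the previous day and incubated at 37° C under 5% CO2. These cells stably express a TNFα-FL/Gaussia luciferase cDNA whose expression is under T-REx (Dox-inducible) control, selected with Hygromycin and Blasticidin.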

Assay [3] deals with human multiple myeloma cell line U266B1. Briefly: U266 Cell Viability Assay. The settings on record: U-266, 48 hr, U266B1 cells, Celltiter-Glo, read-out: 48 hr U266 Viability Celltiter-Glo: Mean EC50. In a few lines: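 Viability measured by CellTiter-Glo luciferase signal after 48 h compound exposure (37 °C, 5% CO2) of U266B1 cells in 384-well format. Where stereochemistry is not shown, data refer to the stereoisomer mixture.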

The test system of assay [4] is HER3-ss+4aa/Gaussia Luciferase. In words: Dox-Induced Her3-ss-Gluc Assay. The settings on record: 293FRT/TO cells, read-out: 24 hr Dox Inducible Her3(ss + 4)Gluc 293FRT/TO: Mean IC50. In a few lines:
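Compounds, diluted in DMSO/media containing doxycycline, were incubated at 37° C., 5% CO2 with cells seeded one day earlier. The cells stably express HER3-ss+4aa/Gaussia luciferase under T-REx control. Where no stereochemistry is shown, data refer to the mixture of stereoisomers.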

The subject of assay [5] is PD1-ss+10aa/Gaussia Luciferase. Briefly: Dox-Induced PD1-ss-Gluc Assay. The settings on record: 293FRT/TO cells, read-out: 24 hr Dox Inducible PD1ssGluc 293FRT/TO: Mean IC50. In a few lines:
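Compounds, diluted in DMSO/media with doxycycline, were added to cells plated a day earlier and kept at 37° C under 5% CO2. The cells stably express a Gaussia luciferase construct fused to PD1-ss+10aa, induced via the T-REx system. Unassigned stereochemistry means mixture data.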

In assay [6] the test system is IL-2-FL/Gaussia Luciferase. In words: Dox Induced IL2-FL-Gluc Assay. The settings on record: 293FRT/TO cells, read-out: 24 hr Dox Inducible IL2FLGIuc 293FRT/TO: Mean IC50. In a few lines: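 Compounds were added together with doxycycline in DMSO/media and incubated at 37° C., 5% CO2. The cells were a stably selected line carrying IL-2-FL/Gaussia luciferase under T-REx inducible control. Structures drawn without stereochemistry were tested as stereoisomer mixtures.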

[7] abbreviates: 24 hr doxycycline induction, Gaussia luciferase signal.

Like-named read-outs stand apart in the source and are kept apart here. A value given as a limit tells only on which side of the number the result lay.

What is called EC50 is the concentration that produces a half-maximal response. Take `COc1cnc(/C=C/c2csc(NC(=O)c3cccn3Cc3ccncc3)n2)c(F)c1` [Compound A299]: the half-maximal effective concentration (EC50) in assay [1] and in assay [3] was greater than 25 µM throughout. Besides, the IC50 is greater than 25 µM in assay [2] (24 hr, doxycycline-induced); 0.214 µM in assay [4] (24 hr, doxycycline-induced); 0.007 µM in assay [5] (24 hr, doxycycline-induced); 0.219 µM in assay [6] (24 hr, doxycycline-induced).
On to `CC(C)c1csc(NC(=O)[C@@H]2CCCN2C(=O)c2ccncc2)n1` [Compound B20, (S)-1-isonicotinoyl-N-(4-isopropylthiazol-2-yl)pyrrolidine-2-carboxamide], for which the concentration giving a half-maximal response (EC50) in assay [1] and in assay [3] was greater than 25 µM in each case. Moreover, the IC50 is greater than 25 µM in assay [2] (24 hr, doxycycline-induced); greater than 25 µM in assay [4] (24 hr, doxycycline-induced); greater than 25 µM in assay [5] (24 hr, doxycycline-induced); greater than 25 µM in assay [6] (24 hr, doxycycline-induced).
Regarding `CC(C)(C)c1csc(NC(=O)c2cccn2Cc2ccccc2Cl)n1` [Compound B11, N-(4-(tert-butyl)thiazol-2-yl)-1-(2-chlorobenzyl)-1H-pyrrole-2-carboxamide], the EC50 in assay [1] and in assay [3] was greater than 25 µM throughout. Further, the IC50 in assay [2] (24 hr, doxycycline-induced) was greater than 25 µM; in assay [4] (24 hr, doxycycline-induced), 5.57 µM; in assay [5] (24 hr, doxycycline-induced), 22.7 µM; in assay [6] (24 hr, doxycycline-induced), greater than 25 µM.
On to `CC1(c2csc(NC(=O)c3cccn3Cc3ccncc3)n2)CC1` [Compound A67, N-(4-(1-methylcyclopropyl)thiazol-2-yl)-1-(pyridin-4-ylmethyl)-1H-pyrrole-2-carboxamide], for which the EC50 in assay [1] and in assay [3] was greater than 25 µM throughout. Besides, the IC50 is greater than 25 µM in assay [2] (setting [7]), 3.24 µM in assay [4] (setting [7]), 1.88 µM in assay [5] (setting [7]) and 2.08 µM in assay [6] (setting [7]).
`CC(C)(OCC1CCOCC1)c1csc(NC(=O)c2cccn2Cc2ccncc2)n1` [Compound A40, 1-(pyridin-4-ylmethyl)-N-(4-(2-((tetrahydro-2H-pyran-4-yl)methoxy)propan-2-yl)thiazol-2-yl)-1H-pyrrole-2-carboxamide]: the EC50 in assay [1] and in assay [3] was greater than 25 µM each time. Besides, the IC50 in assay [2] (setting [7]) is 12.6 µM; in assay [4] (setting [7]), 1.56 µM; in assay [5] (setting [7]), 0.858 µM; in assay [6] (setting [7]) it was 1.21 µM.
Turning to `CC(C)OC(C)(C)c1csc(NC(=O)c2cccn2Cc2ccn(C)c(=O)c2)n1` [Compound A127, N-(4-(2-isopropoxypropan-2-yl)thiazol-2-yl)-1-((1-methyl-2-oxo-1,2-dihydropyridin-4-yl)methyl)-1H-pyrrole-2-carboxamide], the EC50 in assay [1] and in assay [3] was greater than 25 µM each time. Further, the IC50 in assay [2] (setting [7]), in assay [4] (setting [7]), in assay [5] (setting [7]) and in assay [6] (setting [7]) was greater than 25 µM in each case.
As for `O=C(Nc1nc([C@H]2CCC[C@H]2c2ccccc2)cs1)c1cccn1Cc1ccncc1` [Compound A301, N-(4-((1S,2R)-2-phenylcyclopentyl)thiazol-2-yl)-1-(pyridin-4-ylmethyl)-1H-pyrrole-2-carboxamide], the EC50 in assay [1] is 2.77 µM; in assay [3], greater than 25 µM. Moreover, the IC50 in assay [2] (24 hr, doxycycline-induced) is 0.242 µM; in assay [4] (24 hr, doxycycline-induced) it was 0.054 µM; in assay [5] (24 hr, doxycycline-induced), 0.043 µM; in assay [6] (24 hr, doxycycline-induced), 0.064 µM.
For the compound `O=C(Nc1nc(CCc2ccccc2)cs1)c1cccn1Cc1ccncc1` [Compound A13, N-(4-phenethylthiazol-2-yl)-1-(pyridin-4-ylmethyl)-1H-pyrrole-2-carboxamide], the EC50 was 18.8 µM in assay [1] and greater than 25 µM in assay [3]. Besides, the IC50 in assay [2] (setting [7]) was found to be 3.31 µM; in assay [4] (setting [7]), 0.382 µM; in assay [5] (setting [7]), 0.148 µM; in assay [6] (setting [7]) it was 0.648 µM.
